Laboratory results published in US10968269B1, “MHC multimers in borrelia diagnostics and disease” (Agilent Technologies, Inc., priority 2008, dated 2021).

Legend:
[1] = target: HLA-A*0201-β2m-… peptide-complex (human); experiment: sandwich ELISA: W6/32 coated, MHC complex added, HRP rabbit anti-β2m detection; reference: free β2m
[2] = test system: T2 cells loaded with Bcl-X(L)173-182 peptide; conditions: different concentrations of peptide, E:T ratio 1:1, FIG. 14; cited from earlier work
[3] = test system: Bcl-X(L)-specific, CD8 positive T cells; conditions: PBL from a breast cancer patient, 106 PBL/well in doublets, compared to the absence of added peptide, FIG. 11; cited from earlier work

Substance	OD450 ratio against the negative control β2m [1] [fold]	effect of the peptide on killing of pulsed T2 target cells by clone 9 [2]	ELISPOT detection of BclX(L) specific T-cells (number of spots, IFN-gamma producing T-cells) [3]
W6/32 mouse-anti-HLA-ABC antibody (Dako M0736)	> 6		
YLNDHLEPWI (listed as Homo sapiens)		significant even at low concentrations	clearly shows the presence of BclX(L) specific T-cells
